Converted amounts (≈) assume the structure as drawn.

The test system of one test is B. fragilis NCTC 10581. The test can be described thus: Screening panel of Bacteroides fragilis, MIC and MBC, strain A. The format is cell-based. The conditions noted are these: for MIC: NCTC10581, 48 hours at 37° C., anaerobic, read-out: Minimum Inhibitory Concentration (MIC); for MBC: NCTC10581, less than 5 colonies (99.9% reduction) after 48 hours, read-out: Minimum Bactericidal Concentration (MBC). As for the experimental part:
(§1) The screening panel utilized in this example consisted of 5 strains of Bacteroides fragilis. All assays were carried out in 96-well microtitre plates. If an isolate was obtained from either a culture collection or clinical source, the isolate was immediately inoculated into Wilkins-Chalgren broth (Oxoid) and incubated at 37° C. in an anaerobic chamber in an atmosphere of 85% nitrogen, 10% carbon dioxide, and 5% hydrogen for 48 hours. At the end of this time, the viable count was about […] broth. A 1 ml aliquot of each culture was placed in an ampoule and quick frozen in acetone-dry ice mixture and stored in liquid nitrogen. […] A 2 mg sample of the test compound was dissolved in 0.2 ml of a suitable solvent such as dimethylsulfoxide, polyethylene glycol 200 or methanol. […] After addition of the test solution the final inoculum level was 10^5 cells/ml. The plates were incubated for 48 hours at 37° C. in the anaerobic chamber. The Minimum Inhibitory Concentration (MIC) was read visually. The MIC is defined as the lowest concentration at which there is no detectable growth. The Minimum Bactericidal Concentration (MBC) was determined by taking 50 μ l aliquot from each well and placing it in fresh medium. […] The strains of Bacteroides fragilis utilized in the above procedure are identified by letter in accordance with the following legend: |A B. fragilis NCTC 10581

Another test has as its system B. fragilis NCTC 9353. The test can be described thus: Screening panel of Bacteroides fragilis, MIC and MBC, strain B. The format is cell-based. The conditions noted are these: for MIC / MBC: Bacteroides fragilis, NCTC9353, 48 h; for MIC: read-out: Minimum Inhibitory Concentration (MIC); for MBC: read-out: Minimum Bactericidal Concentration (MBC). As to the method: as §1, with “|B” for “|A”, “9353” for “10581”

The test system of another test is B. fragilis NCTC 9344. The test can be described thus: Screening panel of Bacteroides fragilis, MIC and MBC, strain C. The format is cell-based. The conditions noted are these: for MBC / MIC: Bacteroides fragilis; for MBC: NCTC9344, 48 h, read-out: Minimum Bactericidal Concentration (MBC); for MIC: NCTC9344, 48 hours at 37° C., anaerobic, read-out: Minimum Inhibitory Concentration (MIC). As to the method:
as §1, with “|C” for “|A”, “9344” for “10581”

Test [1] relates to B. fragilis MZ-R ATCC 11295. The test can be described thus: Screening panel of Bacteroides fragilis, MIC and MBC, strain D. The format is cell-based. Particulars: ATCC11295, 48 h; for MIC: 48 hours at 37° C., anaerobic, read-out: Minimum Inhibitory Concentration (MIC); for MBC: less than 5 colonies (99.9% reduction) after 48 hours, read-out: Minimum Bactericidal Concentration (MBC).

The next test concerns B. fragilis WS-1. The test can be described thus: Screening panel of Bacteroides fragilis, MIC and MBC, strain E. The format is cell-based. Particulars: WS1, 48 h; for MIC: 48 hours at 37° C., anaerobic, read-out: Minimum Inhibitory Concentration (MIC); for MBC: less than 5 colonies (99.9% reduction) after 48 hours, read-out: Minimum Bactericidal Concentration (MBC). As to the method: as §1, with “|E” for “|A”, “WS-1* | *Obtained from St. Thomas's Hospital Medical School, London, United | Kingdom.” for “NCTC 10581”

The test system of test [2] is Clostridium perfringens NCTC 523. The test can be described thus: microbe, parasite or virus in culture. The format is cell-based. Particulars: NCTC523.
Test [3] concerns Clostridium difficile NCIB 10666. The test can be described thus: MIC vs panel of anaerobes. The format is cell-based. The conditions noted are these: Clostridioides difficile, NCIB10666, procedures of Example 11 (mg/L).
The subject of test [4] is Campylobacter fetus ss. jejuni ATCC 29428. The test can be described thus: MIC vs panel of anaerobes. The format is cell-based. The conditions noted are these: ATCC29428, procedures of Example 11 (mg/L).
The test system of test [5] is Campylobacter fetus ss. jejuni NCTC 10842. The test can be described thus: MIC vs panel of anaerobes. Particulars: NCTC10842, procedures of Example 11 (mg/L). The format is cell-based.
For test [6], the system named is Fusobacterium necrophorum ATCC 11295. The test can be described thus: MIC vs panel of anaerobes. The format is cell-based. Particulars: ATCC11295, procedures of Example 11 (mg/L).
Test [7] deals with Bacteroides melanogenicus NCTC 9336. The test can be described thus: MIC vs panel of anaerobes. The conditions noted are these: NCTC9336, procedures of Example 11 (mg/L). The format is cell-based.
Test [8] relates to Peptostreptococcus anaerobius. The test can be described thus: MIC vs panel of anaerobes. Particulars: procedures of Example 11 (mg/L). The format is cell-based.
Test [9] deals with Propionebacterium acnes NCTC 7337. The test can be described thus: MIC vs panel of anaerobes. The conditions noted are these: procedures of Example 11 (mg/L). The format is cell-based.
Test [10] concerns Fusobacterium necrophorum ATCC 25286. The test can be described thus: MIC vs panel of anaerobes. The format is cell-based. Particulars: ATCC25286, procedures of Example 11 (mg/L).
The test system of another test is Peptococcus magnus. The test can be described thus: MIC vs panel of anaerobes. The format is cell-based. The conditions noted are these: Finegoldia magna, procedures of Example 11 (mg/L).
The test system of a further test is B. fragilis 23745. The test can be described thus: In vivo anti-anaerobe activity, mouse hepatic necrosis. The conditions noted are these: 40 mg/kg (p.o).
[11] abbreviates: less than 5 colonies (99.9% reduction) after 48 hours.

Regarding `CCC1(C)CN=C2C(c3ccccc3)=[N+]([O-])c3cc(C(F)(F)F)ccc3N2C1` (stereo not shown) [Example 4, 2,3-Dihydro-2-ethyl-2-methyl-5-phenyl-8-trifluoromethyl-1H-pyrimido [1,2-a]quinoxaline 6-oxide], the MIC is less than 0.8 µg/mL with B. fragilis NCTC 10581; less than 0.8 µg/mL in the test on B. fragilis NCTC 9353 (48 hours at 37° C., anaerobic); less than 0.8 µg/mL with B. fragilis NCTC 9344; less than 0.8 µg/mL in [1]; less than 0.8 µg/mL in the test with B. fragilis WS-1. In addition, the MBC is 1.5 µg/mL (≈ 3.87 µM) in the test on B. fragilis NCTC 10581; less than 0.8 µg/mL with B. fragilis NCTC 9353 (setting [11]); less than 0.8 µg/mL in the test with B. fragilis NCTC 9344 (setting [11]); less than 0.8 µg/mL in test [1]; less than 0.8 µg/mL with B. fragilis WS-1.
`CC1(C)CN=C2C(c3ccccc3)=[N+]([O-])c3cc(C(F)(F)F)ccc3N2C1` [Example 1, 2,3-Dihydro-2,2-dimethyl-5-phenyl-8-trifluoromethyl-1H-pyrimido[1,2-a]quinoxaline 6-oxide]: the MIC in the test on B. fragilis NCTC 10581 worked out at 3.1 µg/mL (≈ 8.3 µM); with B. fragilis NCTC 9353 (48 hours at 37° C., anaerobic) it was 1.5 µg/mL (≈ 4.02 µM); with B. fragilis NCTC 9344, 1.5 µg/mL (≈ 4.02 µM); in test [1], 0.8 µg/mL (≈ 2.14 µM); with B. fragilis WS-1, 1.5 µg/mL (≈ 4.02 µM); in test [2], 1.5 µg/mL (≈ 4.02 µM). Further, the MIC was less than 0.8 µg/mL in test [3]; 100 µg/mL (≈ 268 µM) in test [4]; more than 100 µg/mL in test [5]; 1.5 µg/mL (≈ 4.02 µM) in test [6]; more than 100 µg/mL in test [7]; 100 µg/mL (≈ 268 µM) in test [8]. This molecule also had an MIC in [9] of 100 µg/mL (≈ 268 µM). Also, the MBC worked out at 3.1 µg/mL (≈ 8.3 µM) with B. fragilis NCTC 10581; 1.5 µg/mL (≈ 4.02 µM) in the test on B. fragilis NCTC 9353 (setting [11]); 3.1 µg/mL (≈ 8.3 µM) in the test with B. fragilis NCTC 9344 (setting [11]); 0.8 µg/mL (≈ 2.14 µM) in test [1]; 1.5 µg/mL (≈ 4.02 µM) with B. fragilis WS-1.
Regarding `CC1(C)CN=C2C(c3ccccc3)=[N+]([O-])c3ccc(F)cc3N2C1` [Example 2, 2,3-Dihydro-2,2-dimethyl-9-fluoro-5-phenyl-1H-pyrimido [1,2-a]quinoxaline 6-oxide], the MIC is less than 0.8 µg/mL with B. fragilis NCTC 9353 (48 hours at 37° C., anaerobic); less than 0.8 µg/mL in the test with B. fragilis NCTC 9344; less than 0.8 µg/mL in test [1]; less than 0.8 µg/mL in the test on B. fragilis WS-1; 3.1 µg/mL (≈ 9.59 µM) in test [2]; 3.1 µg/mL (≈ 9.59 µM) in test [3]. Besides, the MIC is 25 µg/mL (≈ 77.3 µM) in test [4]; 50 µg/mL (≈ 155 µM) in [5]; less than 0.8 µg/mL in test [10]; 3.1 µg/mL (≈ 9.59 µM) in test [6]; 50 µg/mL (≈ 155 µM) in test [7]; less than 0.8 µg/mL in the test on Peptococcus magnus. Besides, the MIC in test [8] amounted to 1.5 µg/mL (≈ 4.64 µM); in test [9] it was 50 µg/mL (≈ 155 µM). Besides, the MBC in the test on B. fragilis NCTC 9353 (setting [11]) was less than 0.8 µg/mL; in the test on B. fragilis NCTC 9344 (setting [11]), 1.5 µg/mL (≈ 4.64 µM); in test [1], less than 0.8 µg/mL; in the test on B. fragilis WS-1, less than 0.8 µg/mL.
With `Cc1ncc([N+](=O)[O-])n1CCO` [Metronidazole, reference compound], the MIC in the test with B. fragilis NCTC 10581 was less than 0.8 µg/mL; with B. fragilis NCTC 9353 (48 hours at 37° C., anaerobic), less than 0.8 µg/mL; with B. fragilis NCTC 9344, less than 0.8 µg/mL. The MBC in the test with B. fragilis NCTC 10581 was less than 0.8 µg/mL; in the test with B. fragilis NCTC 9353 (setting [11]), less than 0.8 µg/mL; in the test on B. fragilis NCTC 9344 (setting [11]), 1.5 µg/mL (≈ 8.76 µM). Further, the “Minimum Inhibitory Concentration (MIC)” value in the test on B. fragilis NCTC 9353 (48 hours at 37° C., anaerobic) was determined as 1.5 mg/L. The “Minimum Bactericidal Concentration (MBC)” value is recorded as 1.5 mg/L in the test on B. fragilis NCTC 9353 (setting [11]) and less than 0.8 mg/L in the test with B. fragilis NCTC 9344 (setting [11]). Moreover, the “reduction in B. fragilis” value in the test with B. fragilis 23745 is given as 3-3.5 log10.
On to `CCC1(C)CN=C2C(c3ccc(C)cc3)=[N+]([O-])c3cc(C(F)(F)F)ccc3N2C1` (stereo not shown) [Example 6, 2,3-Dihydro-2-ethyl-2-methyl-5-(4-methylphenyl)-8-trifluoromethyl-1H-pyrimdo [1,2-a]quinoxaline 6-oxide], for which the MIC came out at 6.2 µg/mL (≈ 15.4 µM) in the test on B. fragilis NCTC 10581; 6.2 µg/mL (≈ 15.4 µM) in the test with B. fragilis NCTC 9353 (48 hours at 37° C., anaerobic); 3.1 µg/mL (≈ 7.72 µM) in the test on B. fragilis NCTC 9344; 1.5 µg/mL (≈ 3.74 µM) in [1]; 3.1 µg/mL (≈ 7.72 µM) with B. fragilis WS-1. In addition, the MBC in the test on B. fragilis NCTC 10581 is 6.2 µg/mL (≈ 15.4 µM); in the test with B. fragilis NCTC 9353 (setting [11]) it was 6.2 µg/mL (≈ 15.4 µM); with B. fragilis NCTC 9344 (setting [11]), 3.1 µg/mL (≈ 7.72 µM); in test [1], 3.1 µg/mL (≈ 7.72 µM); in the test with B. fragilis WS-1 it was 3.1 µg/mL (≈ 7.72 µM).
On to `CC1(C)CN=C2C(c3ccccc3)=[N+]([O-])c3cccc(F)c3N2C1` [Example 5, 2,3-Dihydro-2,2-dimethyl-10-fluoeo-5-phenyl-1H-pyrimido [1,2-a]quinoxaline 6-oxide], for which the MIC in the test on B. fragilis NCTC 10581 was less than 0.8 µg/mL; with B. fragilis NCTC 9353 (48 hours at 37° C., anaerobic), less than 0.8 µg/mL; with B. fragilis NCTC 9344, less than 0.8 µg/mL; in test [1], less than 0.8 µg/mL; with B. fragilis WS-1 it was less than 0.8 µg/mL. The MBC is 1.5 µg/mL (≈ 4.64 µM) with B. fragilis NCTC 10581; less than 0.8 µg/mL in the test on B. fragilis NCTC 9353 (setting [11]); less than 0.8 µg/mL in the test with B. fragilis NCTC 9344 (setting [11]); less than 0.8 µg/mL in test [1]; less than 0.8 µg/mL with B. fragilis WS-1.
